Assay results from patent US20250388565A1, “ESTROGEN RECEPTOR ALPHA DEGRADERS AND METHODS OF USE THEREOF” (Relay Therapeutics, Inc., priority 2022, published 2025).

Molecular target: T1, ERα protein (HiBiT-tagged) in ESR1_HiBiT KI MCF7 cells (Homo sapiens, UniProt P03372)
T1 sequence (P03372 1-595): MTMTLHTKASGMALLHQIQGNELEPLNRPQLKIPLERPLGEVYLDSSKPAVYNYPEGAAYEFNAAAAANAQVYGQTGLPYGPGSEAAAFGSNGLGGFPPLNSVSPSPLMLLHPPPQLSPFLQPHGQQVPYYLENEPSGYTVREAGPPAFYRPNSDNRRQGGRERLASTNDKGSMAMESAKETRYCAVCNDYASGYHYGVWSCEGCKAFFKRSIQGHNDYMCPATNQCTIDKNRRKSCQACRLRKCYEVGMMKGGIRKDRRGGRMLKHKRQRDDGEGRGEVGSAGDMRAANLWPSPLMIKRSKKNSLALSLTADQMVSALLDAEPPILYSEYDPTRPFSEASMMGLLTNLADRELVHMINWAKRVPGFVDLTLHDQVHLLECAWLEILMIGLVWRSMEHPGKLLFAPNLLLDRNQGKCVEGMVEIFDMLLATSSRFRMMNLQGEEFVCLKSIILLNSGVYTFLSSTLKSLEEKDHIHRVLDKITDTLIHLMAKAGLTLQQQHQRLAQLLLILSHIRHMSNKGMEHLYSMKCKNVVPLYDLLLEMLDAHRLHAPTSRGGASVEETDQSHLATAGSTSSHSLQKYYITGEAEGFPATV
Experiment: Nano Glo HiBiT Lytic Degradation Assay
Type: cell-based
Settings: 6 hours with compound, 14-point dose response 1:3, bell-shape curve fit, half-maximal effect of first Hill model, read-out: MCF7 ESR1 HiBiT - (DC50)
In short: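 ESR1_HiBiT knock-in MCF7 cells were seeded 24 h before treatment, then exposed to compounds for 6 h at 37° C (14-point 1:3 curves, 10 mM top stock, 0.1% DMSO final, duplicates). HiBiT-ERα was read by lytic LgBiT luminescence, background-subtracted and normalized to DMSO. DC50 was taken from the half-maximal point of the first Hill component of a bell-shaped fit.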

DC50	Compound
1 nM	O=C1CCC(n2cc3cc(N4CCN(CC5CCN(c6ccc([C@@H]7c8ccc(O)cc8CC[C@@H]7c7ccccc7)cc6)CC5)CC4)ccc3n2)C(=O)N1 (stereo partly shown) [Compound I-301]
2 nM	O=C1CCC(n2ncc3cc(N4CCN(CC5CCN(c6ccc([C@@H]7c8ccc(O)cc8CC[C@@H]7c7ccccc7)cc6)CC5)CC4)ccc32)C(=O)N1 (stereo partly shown) [Compound I-302]
0.32 nM	O=C1CCC(N2Cc3cc(N4CCN(CC5CCN(c6ccc([C@@H]7c8ccc(O)cc8C(F)(F)C[C@@H]7c7ccccc7)cc6)CC5)CC4)ccc3C2=O)C(=O)N1 (stereo partly drawn) [Compound I-305, 3-(5-(4-((1-(4-((1R,2S)-4,4-difluoro-6-hydroxy-2-phenyl-1,2,3,4-tetrahydronaphthalen-1-yl)phenyl)piperidin-4-yl)methyl)piperazin-1-yl)-1-oxoisoindolin-2-yl)piperidine-2,6-dione]
0.6 nM	O=C1CC[C@@H](N2Cc3cc(N4CCN(CC5CCN(c6ccc([C@@H]7c8ccc(O)cc8C(F)(F)C[C@@H]7c7ccccc7)cc6)CC5)CC4)ccc3C2=O)C(=O)N1 [Compound I-306, (R)-3-(5-(4-((1-(4-((1R,2S)-4,4-difluoro-6-hydroxy-2-phenyl-1,2,3,4-tetrahydronaphthalen-1-yl)phenyl)piperidin-4-yl)methyl)piperazin-1-yl)-1-oxoisoindolin-2-yl)piperidine-2,6-dione]
0.37 nM	O=C1CC[C@H](N2Cc3cc(N4CCN(CC5CCN(c6ccc([C@@H]7c8ccc(O)cc8C(F)(F)C[C@@H]7c7ccccc7F)cc6)CC5)CC4)ccc3C2=O)C(=O)N1 [Compound I-312, (S)-3-(5-(4-((1-(4-((1R,2S)-4,4-difluoro-2-(2-fluorophenyl)-6-hydroxy-1,2,3,4-tetrahydronaphthalen-1-yl)phenyl)piperidin-4-yl)methyl)piperazin-1-yl)-1-oxoisoindolin-2-yl)piperidine-2,6-dione]
15 nM	O=C1CC[C@H](N2Cc3cc(N4CCN(CC5CCN(c6ccc([C@H]7c8ccc(O)cc8C(F)(F)C[C@H]7c7ccccc7F)cc6)CC5)CC4)ccc3C2=O)C(=O)N1 [Compound I-313, (S)-3-(5-(4-((1-(4-((1S,2R)-4,4-difluoro-2-(2-fluorophenyl)-6-hydroxy-1,2,3,4-tetrahydronaphthalen-1-yl)phenyl)piperidin-4-yl)methyl)piperazin-1-yl)-1-oxoisoindolin-2-yl)piperidine-2,6-dione]
0.56 nM	Cc1ccccc1[C@H]1CC(F)(F)c2cc(O)ccc2[C@H]1c1ccc(N2CCC(CN3CCN(c4ccc5c(c4)CN([C@H]4CCC(=O)NC4=O)C5=O)CC3)CC2)cc1 [Compound I-322, (S)-3-(5-(4-((1-(4-((1R,2S)-4,4-difluoro-6-hydroxy-2-(o-tolyl)-1,2,3,4-tetrahydronaphthalen-1-yl)phenyl)piperidin-4-yl)methyl)piperazin-1-yl)-1-oxoisoindolin-2-yl)piperidine-2,6-dione]
33 nM	Cc1ccccc1[C@@H]1CC(F)(F)c2cc(O)ccc2[C@@H]1c1ccc(N2CCC(CN3CCN(c4ccc5c(c4)CN([C@H]4CCC(=O)NC4=O)C5=O)CC3)CC2)cc1 [Compound I-323, (S)-3-(5-(4-((1-(4-((1S,2R)-4,4-difluoro-6-hydroxy-2-(o-tolyl)-1,2,3,4-tetrahydronaphthalen-1-yl)phenyl)piperidin-4-yl)methyl)piperazin-1-yl)-1-oxoisoindolin-2-yl)piperidine-2,6-dione]

More lines, now with the values behind:

Compound	DC50
O=C1CC[C@H](N2Cc3cc(N4CCN(CC5CCN(c6ccc([C@H]7c8ccc(O)cc8C(F)(F)C[C@H]7c7ccccc7)c(F)c6)CC5)CC4)ccc3C2=O)C(=O)N1 [Compound I-307, (S)-3-(5-(4-((1-(4-((1R,2R)-4,4-difluoro-6-hydroxy-2-phenyl-1,2,3,4-tetrahydronaphthalen-1-yl)-3-fluorophenyl)piperidin-4-yl)methyl)piperazin-1-yl)-1-oxoisoindolin-2-yl)piperidine-2,6-dione]	19 nM
O=C1CCC(c2ccc(N3CCC4(CCN(CC5CCN(c6ccc([C@@H]7c8ccc(O)cc8C(F)(F)C[C@@H]7c7ccccc7)cc6)CC5)C4)CC3)cc2)C(=O)N1 (stereo partly drawn) [Compound I-308, 3-(4-(2-((1-(4-((1R,2S)-4,4-difluoro-6-hydroxy-2-phenyl-1,2,3,4-tetrahydronaphthalen-1-yl)phenyl)piperidin-4-yl)methyl)-2,8-diazaspiro[4.5]decan-8-yl)phenyl)piperidine-2,6-dione]	0.65 nM
O=C1CCC(N2Cc3cc(N4CCN(CC5CCN(c6ccc([C@@H]7c8ccc(O)cc8C(F)(F)C[C@@H]7c7ccc(F)cc7)cc6)CC5)CC4)ccc3C2=O)C(=O)N1 (stereo partly drawn) [Compound I-309, 3-(5-(4-((1-(4-((1R,2S)-4,4-difluoro-2-(4-fluorophenyl)-6-hydroxy-1,2,3,4-tetrahydronaphthalen-1-yl)phenyl)piperidin-4-yl)methyl)piperazin-1-yl)-1-oxoisoindolin-2-yl)piperidine-2,6-dione]	0.39 nM
O=C1CC[C@@H](N2Cc3cc(N4CCN(CC5CCN(c6ccc([C@@H]7c8ccc(O)cc8C(F)(F)C[C@@H]7c7ccc(F)cc7)cc6)CC5)CC4)ccc3C2=O)C(=O)N1 [Compound I-310, (R)-3-(5-(4-((1-(4-((1R,2S)-4,4-difluoro-2-(4-fluorophenyl)-6-hydroxy-1,2,3,4-tetrahydronaphthalen-1-yl)phenyl)piperidin-4-yl)methyl)piperazin-1-yl)-1-oxoisoindolin-2-yl)piperidine-2,6-dione]	5.74 nM
O=C1CC[C@H](N2Cc3cc(N4CCN(CC5CCN(c6ccc([C@@H]7c8ccc(O)cc8C(F)(F)C[C@@H]7c7ccc(F)c(F)c7)cc6)CC5)CC4)ccc3C2=O)C(=O)N1 [Compound I-314, (S)-3-(5-(4-((1-(4-((1R,2S)-2-(3,4-difluorophenyl)-4,4-difluoro-6-hydroxy-1,2,3,4-tetrahydronaphthalen-1-yl)phenyl)piperidin-4-yl)methyl)piperazin-1-yl)-1-oxoisoindolin-2-yl)piperidine-2,6-dione]	0.33 nM
O=C1CC[C@H](N2Cc3cc(N4CCN(CC5CCN(c6ccc([C@H]7c8ccc(O)cc8C(F)(F)C[C@H]7c7ccc(F)c(F)c7)cc6)CC5)CC4)ccc3C2=O)C(=O)N1 [Compound I-315, (S)-3-(5-(4-((1-(4-((1S,2R)-2-(3,4-difluorophenyl)-4,4-difluoro-6-hydroxy-1,2,3,4-tetrahydronaphthalen-1-yl)phenyl)piperidin-4-yl)methyl)piperazin-1-yl)-1-oxoisoindolin-2-yl)piperidine-2,6-dione]	≥ 10000 nM
O=C1CC[C@H](N2Cc3cc(N4CCN(CC5CCN(c6ccc([C@@H]7c8ccc(O)cc8C(F)(F)C[C@@H]7c7cc(F)ccc7F)cc6)CC5)CC4)ccc3C2=O)C(=O)N1 [Compound I-316, (S)-3-(5-(4-((1-(4-((1R,2S)-2-(2,5-difluorophenyl)-4,4-difluoro-6-hydroxy-1,2,3,4-tetrahydronaphthalen-1-yl)phenyl)piperidin-4-yl)methyl)piperazin-1-yl)-1-oxoisoindolin-2-yl)piperidine-2,6-dione]	0.3 nM
O=C1CC[C@H](N2Cc3cc(N4CCN(CC5CCN(c6ccc([C@H]7c8ccc(O)cc8C(F)(F)C[C@H]7c7cc(F)ccc7F)cc6)CC5)CC4)ccc3C2=O)C(=O)N1 [Compound I-317, (S)-3-(5-(4-((1-(4-((1S,2R)-2-(2,5-difluorophenyl)-4,4-difluoro-6-hydroxy-1,2,3,4-tetrahydronaphthalen-1-yl)phenyl)piperidin-4-yl)methyl)piperazin-1-yl)-1-oxoisoindolin-2-yl)piperidine-2,6-dione]	3 nM
O=C1CC[C@H](N2Cc3cc(N4CCN(CC5CCN(c6ccc([C@@H]7c8ccc(O)cc8C(F)(F)C[C@@H]7c7ccc(F)cc7F)cc6)CC5)CC4)ccc3C2=O)C(=O)N1 [Compound I-318, (S)-3-(5-(4-((1-(4-((1R,2S)-2-(2,4-difluorophenyl)-4,4-difluoro-6-hydroxy-1,2,3,4-tetrahydronaphthalen-1-yl)phenyl)piperidin-4-yl)methyl)piperazin-1-yl)-1-oxoisoindolin-2-yl)piperidine-2,6-dione]	0.33 nM
O=C1CC[C@H](N2Cc3cc(N4CCN(CC5CCN(c6ccc([C@H]7c8ccc(O)cc8C(F)(F)C[C@H]7c7ccc(F)cc7F)cc6)CC5)CC4)ccc3C2=O)C(=O)N1 [Compound I-319, (S)-3-(5-(4-((1-(4-((1S,2R)-2-(2,4-difluorophenyl)-4,4-difluoro-6-hydroxy-1,2,3,4-tetrahydronaphthalen-1-yl)phenyl)piperidin-4-yl)methyl)piperazin-1-yl)-1-oxoisoindolin-2-yl)piperidine-2,6-dione]	108 nM
Cc1cc(F)ccc1[C@H]1CC(F)(F)c2cc(O)ccc2[C@H]1c1ccc(N2CCC(CN3CCN(c4ccc5c(c4)CN([C@H]4CCC(=O)NC4=O)C5=O)CC3)CC2)cc1 [Compound I-326, (S)-3-(5-(4-((1-(4-((1R,2S)-4,4-difluoro-2-(4-fluoro-2-methylphenyl)-6-hydroxy-1,2,3,4-tetrahydronaphthalen-1-yl)phenyl)piperidin-4-yl)methyl)piperazin-1-yl)-1-oxoisoindolin-2-yl)piperidine-2,6-dione]	0.58 nM
